# Legend:
# [1] = target: T1, Cbl-b (Homo sapiens, UniProt Q13191); assay: Cbl-b inhibition assay (Cbl-b activity assay, FRET, Biological Example 1; 100 mM NaCl, 60 nM Src kinase); assay type: biochemical; conditions: upper bound stated in text lists; read-out: IC50 values in the Cbl-b inhibition assay of Biological Example 1
# Procedure, shortened: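 Binding-based Cbl-b activity assay. Src-phosphorylated, N-terminally biotin-Avi-tagged Cbl-b recruits labelled UbcH5B-Ub, and proximity to streptavidin-terbium yields FRET.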
# [2] = test system: T-cell; assay: IL-2 secretion from T-cells co-stimulated with anti-CD3 and anti-CD28 antibody (Biological Example 2); assay type: cell-based, human; conditions: Homo sapiens, T-cell, primary human total T-cells, baseline = anti-CD3/anti-CD28 stimulated cells without inhibitor, read-out: IL-2 secretion, Anti-CD3/Anti-CD28 stimulation, fold change over baseline; for fold induction at 0.3 µM: 0.3 μM compound; for fold induction at 1 µM: 1 μM compound; for fold induction at 4 µM: 4 μM compound
# Procedure, shortened: (§1)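 T-cells were stimulated with anti-CD3 antibody alone or with anti-CD28 antibody, in the presence or absence of Cbl-b inhibitor. IL-2 secretion or CD25 surface staining was measured, and values expressed as fold over the uninhibited baseline […].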
# [3] = test system: T-cell; assay: CD25 cell surface staining on T-cells co-stimulated with anti-CD3 and anti-CD28 antibody (Biological Example 2); assay type: cell-based, human; conditions: Homo sapiens, T-cell, primary human total T-cells, baseline = anti-CD3/anti-CD28 stimulated cells without inhibitor, read-out: CD25 staining, Anti-CD3/Anti-CD28 stimulation, fold change over baseline; for fold induction at 0.3 µM: 0.3 μM compound; for fold induction at 1 µM: 1 μM compound; for fold induction at 4 µM: 4 μM compound
# Procedure, shortened: as §1
# [4] = target: T1, Cbl-b; assay: Cbl-b activity assay (Cbl-b inhibition assay), TR-FRET of Cbl-b interaction with UbcH5B-Ub; assay type: biochemical; conditions: assay buffer with 100 mM NaCl, 60 nM Src kinase; read-out: Cbl-b activity IC50
# Procedure, shortened: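 UbcH5B (C85K) conjugated to N-terminally Bodipy-Fluorescein-labeled ubiquitin served as the fluorescent partner. After compound preincubation, Src kinase (60 nM) with 1 mM ATP and 5 mM MgCl2 (final) was added for 1.5 h, followed by a further 1 h incubation. Some values were obtained with 50 mM NaCl and 30 nM Src.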
# [5] = target: Cbl-b (residues 36-427) (Homo sapiens, UniProt Q13191); assay: Cbl-b binding assay (SPR, Biacore T200); conditions: 20° C., 1:1 binding model
# Chain of Cbl-b (residues 36-427) (Q13191 36-427): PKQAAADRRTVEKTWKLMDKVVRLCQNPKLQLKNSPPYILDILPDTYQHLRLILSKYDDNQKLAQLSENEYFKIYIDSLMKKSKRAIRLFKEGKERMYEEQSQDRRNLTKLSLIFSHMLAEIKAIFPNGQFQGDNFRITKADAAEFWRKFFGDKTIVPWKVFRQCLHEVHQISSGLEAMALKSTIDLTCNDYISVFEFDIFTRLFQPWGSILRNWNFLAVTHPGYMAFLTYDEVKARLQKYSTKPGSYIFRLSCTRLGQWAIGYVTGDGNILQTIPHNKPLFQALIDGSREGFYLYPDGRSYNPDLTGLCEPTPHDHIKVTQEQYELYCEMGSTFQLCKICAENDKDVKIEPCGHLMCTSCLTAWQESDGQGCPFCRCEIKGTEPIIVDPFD
# Procedure, shortened: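 Steps: capture protein on NeutrAvidin surface; inject compound dilutions (8 or 10 points from 100 or 50 μM) 50 s; allow 90-180 s dissociation; regenerate 20 s with 0.3 M NaCl. Runs at 20° C in HEPES pH 7.5/100 mM NaCl/2% DMSO; 1:1 fitting.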
# [6] = test system: T-cell; assay: IL-2 secretion from T-cells stimulated with anti-CD3 antibody alone (Biological Example 2); assay type: cell-based; conditions: primary human total T-cells, read-out: IL-2 secretion, Anti-CD3 stimulation, fold change over baseline; for fold induction at 1 µM: 1 μM compound; for fold induction at 8 µM: 8 μM compound
# [7] = test system: T-cell; assay: CD25 cell surface staining on T-cells stimulated with anti-CD3 antibody alone (Biological Example 2); assay type: cell-based; conditions: primary human total T-cells, baseline = anti-CD3/anti-CD28 stimulated cells without inhibitor, read-out: CD25 staining, Anti-CD3 stimulation, fold change over baseline; for fold induction at 1 µM: 1 μM compound; for fold induction at 8 µM: 8 μM compound
# T1 sequence (Q13191 36-427): as above
Compound,IC50 [1] [nM],fold induction at 0.3 µM [2],fold induction at 1 µM [2],fold induction at 4 µM [2],fold induction at 0.3 µM [3],fold induction at 1 µM [3],fold induction at 4 µM [3],IC50 [4] [nM],Kd [5] [nM],fold induction at 1 µM [6],fold induction at 8 µM [6],fold induction at 1 µM [7],fold induction at 8 µM [7]
"Cn1cnnc1[C@H](F)C(C)(F)c1cccc(N2Cc3c(cccc3C(F)(F)F)C2=O)c1 (stereo in doubt) [Compound 479, 2-(3-((1S,2S)-1,2-difluoro-1-(4-methyl-4H-1,2,4-triazol-3-yl)propan-2-yl)phenyl)-4-(trifluoromethyl)isoindolin-1-one]",≤ 100,1.01 to 2.5,1.01 to 2.5,1.01 to 2.5,1.01 to 1.3,1.01 to 1.3,1.01 to 1.3,< 100,100 to 300,< 0.05,0.101 to 0.15,0.601 to 0.8,0.801 to 1
"Cn1cnnc1CC(C)(C)c1cccc(NC(=O)c2cc(C(=O)N3CC[C@H](O)C3)cc(C(F)(F)F)n2)c1 [Compound 475, (S)-4-(3-hydroxypyrrolidine-1-carbonyl)-N-(3-(2-methyl-1-(4-methyl-4H-1,2,4-triazol-3-yl)propan-2-yl)phenyl)-6-(trifluoromethyl)picolinamide]",≤ 100,1.01 to 2.5,2.51 to 5,5 to 7.5,1.01 to 1.3,1.01 to 1.3,1.01 to 1.3,< 100,100 to 300,0.101 to 0.15,> 0.201,0.801 to 1,> 1
"C[C@H](Cc1nncn1C)c1cccc(N2Cc3c(cc(CN4C[C@@H](O)[C@H](F)C4)cc3C(F)(F)F)C2=O)c1 [Compound 395, 6-(((3R,4R)-3-fluoro-4-hydroxypyrrolidin-1-yl)methyl)-2-(3-((R)-1-(4-methyl-4H-1,2,4-triazol-3-yl)propan-2-yl)phenyl)-4-(trifluoromethyl)isoindolin-1-one]",≤ 100,2.51 to 5,> 7.5,> 7.5,1.01 to 1.3,1.31 to 1.5,1.31 to 1.5,< 100,< 100,> 0.201,> 0.201,> 1,> 1
"Cn1cnnc1C(F)(F)[C@](C)(F)c1cccc(N2Cc3c(cc(CN4CC[C@H](S(C)(=O)=O)C4)cc3C(F)(F)F)C2=O)c1 [Compound 457, 6-(((S)-3-(Methylsulfonyl)pyrrolidin-1-yl)methyl)-2-(3-((R)-1,1,2-trifluoro-1-(4-methyl-4H-1,2,4-triazol-3-yl)propan-2-yl)phenyl)-4-(trifluoromethyl)isoindolin-1-one]",≤ 100,2.51 to 5,2.51 to 5,> 7.5,1.01 to 1.3,1.01 to 1.3,1.01 to 1.3,< 100,< 100,0.101 to 0.15,> 0.201,0.801 to 1,> 1
"Cn1cnnc1CC(C)(C)c1cccc(N2Cc3c(cc(C4CC4)cc3C(F)(F)F)C2=O)c1 [Compound 477, 6-cyclopropyl-2-(3-(2-methyl-1-(4-methyl-4H-1,2,4-triazol-3-yl)propan-2-yl)phenyl)-4-(trifluoromethyl)isoindolin-1-one]",≤ 100,1.01 to 2.5,2.51 to 5,5 to 7.5,1.01 to 1.3,1.01 to 1.3,1.31 to 1.5,< 100,< 100,0.101 to 0.15,> 0.201,0.801 to 1,> 1
"Cn1cnnc1[C@@H]1C[C@@H]1c1cccc(N2Cc3c(cc(C#N)cc3C(F)(F)F)C2=O)c1 [Compound 408, 2-(3-((1S,2R)-2-(4-methyl-4H-1,2,4-triazol-3-yl)cyclopropyl)phenyl)-3-oxo-7-(trifluoromethyl)isoindoline-5-carbonitrile]",≤ 300,1.01 to 2.5,1.01 to 2.5,2.51 to 5,1.01 to 1.3,1.01 to 1.3,1.01 to 1.3,100 to 300,100 to 300,< 0.05,0.101 to 0.15,0.601 to 0.8,0.801 to 1
"C[C@H](Cc1nncn1C)c1cccc(N2Cc3c(cc(CN4CC(F)C4)cc3C(F)(F)F)C2=O)c1 [Compound 401, (R)-6-((3-fluoroazetidin-1-yl)methyl)-2-(3-(1-(4-methyl-4H-1,2,4-triazol-3-yl)propan-2-yl)phenyl)-4-(trifluoromethyl)isoindolin-1-one]",≤ 100,2.51 to 5,> 7.5,> 7.5,1.01 to 1.3,1.01 to 1.3,1.31 to 1.5,< 100,< 100,0.151 to 0.2,> 0.201,> 1,> 1
"C[C@H](Cc1nncn1C)c1cccc(N2Cc3c(cc(CN4CC[C@@H](F)C4)cc3C(F)(F)F)C2=O)c1 [Compound 400, 6-(((R)-3-fluoropyrrolidin-1-yl)methyl)-2-(3-((R)-1-(4-methyl-4H-1,2,4-triazol-3-yl)propan-2-yl)phenyl)-4-(trifluoromethyl)isoindolin-1-one]",≤ 100,5 to 7.5,> 7.5,> 7.5,1.01 to 1.3,1.01 to 1.3,1.31 to 1.5,< 100,< 100,> 0.201,> 0.201,> 1,> 1
"C[C@H](Cc1nncn1C)c1cccc(N2Cc3c(cc(CO)cc3C(F)(F)F)C2=O)c1 [Compound 392, (R)-6-(hydroxymethyl)-2-(3-(1-(4-methyl-4H-1,2,4-triazol-3-yl)propan-2-yl)phenyl)-4-(trifluoromethyl)isoindolin-1-one]",≤ 100,2.51 to 5,5 to 7.5,> 7.5,1.01 to 1.3,1.01 to 1.3,1.31 to 1.5,< 100,< 100,0.151 to 0.2,> 0.201,> 1,> 1
"Cc1c[nH]nc1C[C@@H](C)c1cccc(N2Cc3c(cc(C(=O)N4CCC(O)C4)cc3C(F)(F)F)C2=O)c1 (stereo in doubt) [Compound 463, 6-((S)-3-hydroxypyrrolidine-1-carbonyl)-2-(3-((R)-1-(4-methyl-1H-pyrazol-3-yl)propan-2-yl)phenyl)-4-(trifluoromethyl)isoindolin-1-one]",≤ 100,1.01 to 2.5,2.51 to 5,> 7.5,1.01 to 1.3,1.01 to 1.3,1.31 to 1.5,< 100,< 100,0.101 to 0.15,> 0.201,0.801 to 1,> 1

# Reference: patent US20220324835A1 (Nurix Therapeutics, Inc., priority 2018, published 2022)
